Results on 1 compound are retold here after ChEMBL document CHEMBL1155766, “Secondary metabolites from the roots of Astragalus zahlbruckneri” (J Nat Prod, 2001).

This test addresses T1, Sex hormone-binding globulin (Homo sapiens) (UniProt P04278).
T1 sequence (whole entry): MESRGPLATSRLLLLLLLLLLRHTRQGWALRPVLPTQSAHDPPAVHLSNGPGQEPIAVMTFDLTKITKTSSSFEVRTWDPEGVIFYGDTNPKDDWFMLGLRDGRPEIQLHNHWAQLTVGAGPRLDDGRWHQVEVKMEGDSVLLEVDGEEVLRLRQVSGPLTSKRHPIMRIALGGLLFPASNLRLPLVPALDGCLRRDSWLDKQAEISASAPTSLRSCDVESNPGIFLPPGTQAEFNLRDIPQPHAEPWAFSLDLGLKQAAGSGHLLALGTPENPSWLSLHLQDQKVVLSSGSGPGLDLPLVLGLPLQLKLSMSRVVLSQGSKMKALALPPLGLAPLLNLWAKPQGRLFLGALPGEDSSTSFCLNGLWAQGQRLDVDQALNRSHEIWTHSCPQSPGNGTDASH
Description: Binding affinity to human sex hormone binding globulin.

The structures appear in SMILES notation. Activity calls are given as the source filed them. The calls are words filed in the database; no cut-off is given here.

Turning to `COc1cc([C@@H]2O[C@@H](c3ccc(O)c(OC)c3)[C@H](CO)[C@H]2CO)ccc1O`, the outcome was Active.
